In patent US20120165319A1, “INHIBITORS OF INTERLEUKIN-1 BETA CONVERTING ENZYME” (VERTEX PHARMACEUTICALS INCORPORATED, priority 1995, published 2012):

Experiment: Measurement of blood levels of prodrugs of 214e after p.o. dosing in mice
Assay type: in vivo, mouse
Conditions: p.o. 50 mg/kg in 0.5% carboxymethylcellulose, blood at 1 and 7 hours
Protocol: Measurement of Blood Levels of Prodrugs of 214e
Mice were administered a p.o. dose of compounds 302 and 304a (50 mg/kg) prepared in 0.5% carboxymethylcellulose. Blood samples were collected at 1 and 7 hours after dosing. Serum was extracted by precipitation with an equal volume of acetonitrile containing 2% formic acid followed by centrifugation. The supernatant was analyzed by liquid chromatography-mass spectrometry (ESI-MS) with a detection level of 0.03 to 3 μg/ml.

CC(C)(C)OC(=O)C[C@@H](C=O)NC(=O)[C@@H]1CCCN2C(=O)CC[C@H](NC(=O)c3ccccc3)C(=O)N12 [Compound 302, [3S(1S,9S)3-(9-Benzoylamino-6,10-dioxo-1,2,3,4,7,8,9,10-octahydro-6H-pyriazino-[1,2-a][1,2]diazapine-1-carboxamido)-amino]-4-oxobutanoic acid tert-butyl ester]
blood levels when administered orally (in words): detectable blood levels
